Results: the NIST ThermoML archive (doi:10.1021/je800110r)
Numbers after ± are expanded uncertainties.

Settings: 333.16 K, Liquid, Vibrating tube method

CCCCCCCCCC [decane]
mass density (7960 kPa): 706.7 ± 2 kg/m3
mass density (7987 kPa): 706.8 ± 2 kg/m3
mass density (8006 kPa): 706.9 ± 2 kg/m3
mass density (8033 kPa): 706.9 ± 2 kg/m3
mass density (8049 kPa): 706.9 ± 2 kg/m3
mass density (8068 kPa): 707 ± 2 kg/m3
mass density (8410 kPa): 707.1 ± 2 kg/m3
mass density (8437 kPa): 707.2 ± 2 kg/m3
mass density (8464 kPa): 707.2 ± 2 kg/m3
mass density (8484 kPa): 707.2 ± 2 kg/m3
mass density (8592 kPa): 707.4 ± 2 kg/m3
mass density (8666 kPa): 707.4 ± 2 kg/m3
mass density (8688 kPa): 707.6 ± 2 kg/m3
mass density (8718 kPa): 707.4 ± 2 kg/m3
mass density (8769 kPa): 707.5 ± 2 kg/m3
mass density (8949 kPa): 707.7 ± 2 kg/m3
mass density (8971 kPa): 707.7 ± 2 kg/m3
mass density (9005 kPa): 707.7 ± 2 kg/m3
mass density (9029 kPa): 707.7 ± 2 kg/m3
mass density (9051 kPa): 707.7 ± 2 kg/m3
mass density (9073 kPa): 707.8 ± 2 kg/m3
mass density (9099 kPa): 707.9 ± 2 kg/m3
mass density (9121 kPa): 707.7 ± 2 kg/m3
mass density (9143 kPa): 707.9 ± 2 kg/m3
mass density (9169 kPa): 707.8 ± 2 kg/m3
mass density (9191 kPa): 707.9 ± 2 kg/m3
mass density (9214 kPa): 707.9 ± 2 kg/m3
mass density (9234 kPa): 708 ± 2 kg/m3
mass density (9254 kPa): 707.9 ± 2 kg/m3
mass density (9280 kPa): 707.9 ± 2 kg/m3
mass density (9303 kPa): 708.1 ± 2 kg/m3
mass density (9330 kPa): 708 ± 2 kg/m3
mass density (9521 kPa): 708.1 ± 2 kg/m3
mass density (9549 kPa): 708.2 ± 2 kg/m3
mass density (9737 kPa): 708.4 ± 2 kg/m3
mass density (9763 kPa): 708.4 ± 2 kg/m3
mass density (9789 kPa): 708.4 ± 2 kg/m3
mass density (9818 kPa): 708.4 ± 2 kg/m3
mass density (12216 kPa): 710.6 ± 2 kg/m3
mass density (12245 kPa): 710.6 ± 2 kg/m3
mass density (12280 kPa): 710.7 ± 2 kg/m3
mass density (12305 kPa): 710.7 ± 2 kg/m3
mass density (12351 kPa): 710.7 ± 2 kg/m3
mass density (12386 kPa): 710.7 ± 2 kg/m3
mass density (12427 kPa): 710.8 ± 2 kg/m3
mass density (12458 kPa): 710.8 ± 2 kg/m3
mass density (12492 kPa): 710.8 ± 2 kg/m3
mass density (12528 kPa): 710.8 ± 2 kg/m3
mass density (12561 kPa): 710.9 ± 2 kg/m3
mass density (12601 kPa): 711 ± 2 kg/m3
mass density (12638 kPa): 710.9 ± 2 kg/m3
mass density (12670 kPa): 711 ± 2 kg/m3
mass density (12704 kPa): 711 ± 2 kg/m3
mass density (12735 kPa): 711 ± 2 kg/m3
mass density (12766 kPa): 711 ± 2 kg/m3
mass density (12792 kPa): 711.1 ± 2 kg/m3
mass density (12824 kPa): 711.1 ± 2 kg/m3
mass density (13106 kPa): 711.4 ± 2 kg/m3
mass density (13133 kPa): 711.4 ± 2 kg/m3
mass density (13377 kPa): 711.5 ± 2 kg/m3
mass density (13399 kPa): 711.4 ± 2 kg/m3
mass density (13418 kPa): 711.7 ± 2 kg/m3
mass density (13441 kPa): 711.6 ± 2 kg/m3
mass density (13459 kPa): 711.6 ± 2 kg/m3
mass density (13476 kPa): 711.7 ± 2 kg/m3
mass density (13493 kPa): 711.7 ± 2 kg/m3
mass density (13510 kPa): 711.7 ± 2 kg/m3
mass density (13525 kPa): 711.7 ± 2 kg/m3
mass density (13537 kPa): 711.6 ± 2 kg/m3
